Like-named read-outs stand apart in the source and are kept apart here.
Experiments:
[1] = tested on: Peripheral blood mononuclear cells (PBMC); experiment: Cytokine Induction in Human Cells (in vitro human blood cell system, IFN and TNF secreted into culture media); type: cell-based; set-up: key to Lowest Effective Concentration (μM) Tumor Necrosis Factor / Lowest Effective Concentration (μM) Interferon: *: no induction was seen at any of the tested concentrations; conditions: 18 to 24 hours, tested 30-0.014 μM
Procedure, shortened: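 Human donor PBMC (2×10^6 cells/mL, RPMI complete) incubated 18–24 h at 37 °C, 5% CO2 with compound, 3-fold dilutions 30–0.014 μM, ≤1% DMSO. IFN-α measured by ELISA, TNF-α by ELISA or IGEN immunoassay in supernatants (pg/mL). Value is lowest concentration inducing each cytokine.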

[2] = Homo sapiens, PBMC, lowest concentration found to induce interferon (α), ELISA, read-out: Lowest Effective Concentration (μM) Interferon
[3] = Homo sapiens, PBMC, lowest concentration found to induce tumor necrosis factor (α), ELISA or IGEN assay, read-out: Lowest Effective Concentration (μM) Tumor Necrosis Factor
[4] = lowest concentration found to induce tumor necrosis factor (α), ELISA or IGEN assay
[5] = lowest concentration found to induce interferon (α), ELISA

Structure (SMILES) | melting point [°C] | minimal effective concentration [1, 2] [µM] | minimal effective concentration [1, 3] [µM] | Lowest Effective Concentration (μM) Tumor Necrosis Factor [1, 4] | Lowest Effective Concentration (μM) Interferon [1, 5] | minimal effective concentration ([1]; lowest concentration found to induce interferon (α), ELISA, read-out: Lowest Effective Concentration (μM) Interferon) [µM] | minimal effective concentration ([1]; lowest concentration found to induce tumor necrosis factor (α), ELISA or IGEN assay, read-out: Lowest Effective Concentration (μM) Tumor Necrosis Factor) [µM]
CCCCc1nc2c(N)nc3ccccc3c2n1CCOCc1ccccc1 [Example 126, 1-[2-(Benzyloxy)ethyl]-2-butyl-1H-imidazo[4,5-c]quinolin-4-amine] | 133 to 135 | 0.04 | 0.04 |  |  |  | 
COc1ccc(CCCOCCn2cnc3c(N)nc4ccccc4c32)cc1 [Example 5, 1-{2-[3-(4-Methoxyphenyl)propoxy]ethyl}-1H-imidazo[4,5-c]quinolin-4-amine] | 116 to 118 | 0.12 | 1.11 |  |  |  | 
Cc1cccc(C)c1C#CCOCCn1cnc2c(N)nc3ccccc3c21 [Example 8, 1-(2-{[3-(2,6-Dimethylphenyl)-2-propynyl]oxy}ethyl)-1H-imidazo[4,5-c]quinolin-4-amine] | 200 to 201 | 1.11 | 10 |  |  |  | 
CCOCc1nc2c(N)nc3ccccc3c2n1CCOCc1ccccc1 [Example 125, 1-[2-(Benzyloxy)ethyl]-2-(ethoxymethyl)-1H-imidazo[4,5-c]quinolin-4-amine] | 144.5 to 146 | 0.01 | 0.37 |  |  |  | 
C#CCOCCn1cnc2c(N)nc3ccccc3c21 [Example 1, 1-[2-(2-Propynyloxy)ethyl]-1H-imidazo[4,5-c]quinolin-4-amine] | 225 to 227 | 0.12 | 1.11 |  |  |  | 
Nc1nc2ccccc2c2c1ncn2CCOCC#Cc1ccccc1 [Example 3, 1-{2-[(3-Phenyl-2-propynyl)oxy]ethyl}-1H-imidazo[4,5-c]quinolin-4-amine] | 196 to 197 | 0.12 | 3.33 |  |  |  | 
Nc1nc2ccccc2c2c1ncn2CCOC/C=C/c1ccccc1 [Example 115, 1-(2-{[(2E)-3-Phenylprop-2-enyl]oxy}ethyl)-1H-imidazo[4,5-c]quinolin-4-amine] | 183.7 to 184.3 | 0.12 | 1.11 |  |  |  | 
COCCc1nc2c(N)nc3ccccc3c2n1CCOCCCc1ccccc1 [Example 121, 2-(2-Methoxyethyl)-1-[2-(3-phenylpropoxy)ethyl]-1H-imidazo[4,5-c]quinolin-4-amine] | 103.8 to 104.5 | 0.01 | 0.04 |  |  |  | 
CNS(=O)(=O)c1ccc(C)c(CCCOCCn2cnc3c(N)nc4ccccc4c32)c1 [Example 6, N^1,4-Dimethyl-3-{3-[2-(4-amino-1H-imidazo[4,5-c]quinolin-1-yl)ethoxy]propyl}-1-benzensulfonamide] | 207 to 209 | 0.12 |  | * |  |  | 
CCCCc1nc2c(N)nc3ccccc3c2n1CCOCCCc1ccccc1 [Example 124, 2-Butyl-1-[2-(3-phenylpropoxy)ethyl]-1H-imidazo[4,5-c]quinolin-4-amine] | 80.8 to 81.3 | 1.11 | 10 |  |  |  | 
Nc1nc2ccccc2c2c1ncn2CCOCC#Cc1ccccc1C(F)(F)F [Example 10, 1-[2-({3-[2-(Trifluoromethyl)phenyl]-2-propynyl}oxy)ethyl]-1H-imidazo[4,5-c]quinolin-4-amine] | 154 to 155 | 1.11 | 10 |  |  |  | 
Cc1ccc(C#CCOCCn2cnc3c(N)nc4ccccc4c32)cc1C [Example 23, 1-(2-{[3-(3,4-Dimethylphenyl)-2-propynyl]oxy}ethyl]-1H-imidazo[4,5-c]quinolin-4-amine] | 214 to 216 | 1.11 |  | * |  |  | 
Cc1nc2c(N)nc3ccccc3c2n1CCOCc1ccccc1 [Example 127, 1-[2-(Benzyloxy)ethyl]-2-methyl-1H-imidazo[4,5-c]quinolin-4-amine] | 159 to 160 | 0.01 | 0.12 |  |  |  | 
N#Cc1ccc(COCCn2cnc3c(N)nc4ccccc4c32)cc1 [Example 19, 4-{[2-(4-Amino-1H-imidazo[4,5-c]quinolin-1-yl)ethoxy]methyl}benzonitrile] | 238.1 to 239.2 | 0.37 |  | * |  |  | 
CCC(COCc1ccc(C#N)cc1)n1cnc2c(N)nc3ccccc3c21 (stereo not drawn) [Example 141, 4-{[2-(4-Amino-1H-imidazo[4,5-c]quinolin-1-yl)butoxy]methyl}benzonitrile] | 160 to 161 |  |  |  |  | 0.12 | 0.12
CCC(COCc1cccc(Cl)c1)n1cnc2c(N)nc3ccccc3c21 (stereo not drawn) [Example 17, 1-(1-{[(3-Chlorobenzyl)oxy]methyl}propyl)-1H-imidazo[4,5-c]quinolin-4-amine] | 60 to 62 | 0.12 | 0.37 |  |  |  | 
COCCc1nc2c(N)nc3ccccc3c2n1CCOCC#Cc1ccccc1 [Example 120, 2-(Methoxyethyl)-1-{2-[(3-phenylprop-2-ynyl)oxy]ethyl}-1H-imidazo[4,5-c]quinolin-4-amine] | 134.5 to 135.5 | 0.01 | 0.01 |  |  |  | 
N#Cc1ccccc1C#CCOCCn1cnc2c(N)nc3ccccc3c21 [Example 2, 2-{3-[2-(4-Amino-1H-imidazo[4,5-c]quinolin-1-yl)ethoxy]-1-propynyl}benzonitrile] | 180 to 183 | 1.11 |  | * |  |  | 

The next lines start with results.

melting point [°C] | Structure (SMILES) | minimal effective concentration [1, 2] [µM] | minimal effective concentration [1, 3] [µM] | Lowest Effective Concentration (μM) Tumor Necrosis Factor [1, 4] | Lowest Effective Concentration (μM) Interferon [1, 5] | minimal effective concentration ([1]; lowest concentration found to induce interferon (α), ELISA, read-out: Lowest Effective Concentration (μM) Interferon) [µM] | minimal effective concentration ([1]; lowest concentration found to induce tumor necrosis factor (α), ELISA or IGEN assay, read-out: Lowest Effective Concentration (μM) Tumor Necrosis Factor) [µM]
145 to 146.1 | Cc1nc2c(N)nc3ccccc3c2n1CCCOCCCc1ccccc1 [Example 148, 2-Methyl-1-[3-(3-phenylpropoxy)propyl]-1H-imidazo[4,5-c]quinolin-4-amine] | 1.11 | 1.11 |  |  |  | 
160 to 161.6 | Cc1nc2c(N)nc3ccccc3c2n1CCCOCC#Cc1ccccc1 [Example 147, 2-Methyl-1-{3-[(3-phenylprop-2-ynyl)oxy]propyl}-H-imidazo[4,5-c]quinolin-4-amine] | 0.37 | 0.37 |  |  |  | 
168.3 to 169.5 | CCCCc1nc2c(N)nc3ccccc3c2n1CCOc1ccccc1 [Example 132, 2-Butyl-1-(2-phenoxyethyl)-1H-imidazo[4,5-c]quinolin-4-amine] | 0.01 | 3.33 |  |  |  | 
168.5 to 170 | Nc1nc2ccccc2c2c1nc(COc1ccccc1)n2CCOc1ccccc1 [Example 133, 1-(2-Phenoxyethyl)-2-(phenoxymethyl)-1H-imidazo[4,5-c]quinolin-4-amine] | 3.33 |  | * |  |  | 
176.6 to 177.8 | CC(C)Cc1nc2c(N)nc3ccccc3c2n1CCOc1ccccc1 [Example 130, 2-Isobutyl-1-(2-phenoxyethyl)-1H-imidazo[4,5-c]quinolin-4-amine] | 3.33 | 3.33 |  |  |  | 
201 to 203.6 | COc1ccc(Cc2nc3c(N)nc4ccccc4c3n2CCOc2ccccc2)cc1 [Example 134, 2-(4-Methoxybenzyl)-1-(2-phenoxyethyl)-1H-imidazo[4,5-c]quinolin-4-amine] |  |  | * | * |  | 
105.1 to 106 | Cc1nc2c(N)nc3ccccc3c2n1CCCCOCCCc1ccccc1 [Example 150, 2-Methyl-1 [4-(3-phenylpropoxy)butyl]-1H-imidazo[4,5-c]quinolin-4-amine] | 0.37 | 1.11 |  |  |  | 
182.5 to 184.6 | Nc1nc2ccccc2c2c1nc(-c1ccccc1)n2CCOc1ccccc1 [Example 140, 1-(2-Phenoxyethyl)-2-phenyl-1H-imidazo[4,5-c]quinolin-4-amine] |  |  | * | * |  | 
229 to 231 | CC(C)c1nc2c(N)nc3ccccc3c2n1CCOc1ccccc1 [Example 131, 2-Isopropyl-1-(2-phenoxyethyl)-1H-imidazo[4,5-c]quinolin-4-amine] |  | 10 |  | * |  | 
216 to 217.9 | Nc1nc2ccccc2c2c1nc(C1CCCC1)n2CCOc1ccccc1 [Example 135, 2-Cyclopentyl-1-(2-phenoxyethyl)-1H-imidazo[4,5-c]quinolin-4-amine] |  |  | * | * |  | 
110 to 111 | CCCCCCCCc1nc2c(N)nc3ccccc3c2n1CCOCc1ccccc1 [Example 128, 1-[2-(Benzyloxy)ethyl]-2-octyl-1H-imidazo[4,5-c]quinolin-4-amine] |  |  | * | * |  | 

— US6989389B2, “Aryl ether substituted imidazoquinolines” (3M Innovative Properties Co., priority 2000, dated 2006)
